Where “and” joins values, the source holds several entries; their conditions need not be identical. Identical values can stand only once.
Experiment: Freeze/thaw stability tests in human plasma (three cycles, about −20° C.)
Type: physicochemical
Settings: for Change in concentration [%]: 3 F/T cycles vs Baseline; for Accuracy: single QC replicate; for Change in plasma concentration following three freeze/thaw cycles: human plasma QC samples, −20° C., vs freshly processed QC
From the text: Each analyte had to be stable in human plasma for at least three freeze-thaw cycles (for repeated sample preparations) and at ambient temperature for at least eight hours (maximal duration of sample preparation). Measured samples should be stable for a second injection when the first analytical run was not valid. The analytes had to be stable in the matrix at the intended storage temperatures and study duration.
An analyte was considered stable at one of the above tests when no increase or decrease of the analyte concentration of more than 15% for the mean of at least three analyzed QC samples at low, medium and at high concentration was observed.
Seven of each LLOQ, QCLOW, QCMID, QCHIGH, and ULOQ sample in human plasma were stored at about −20° C. for at least 24 hours and thawed unassisted at ambient temperature. When completely thawed, the samples were refrozen for at least 12 hours under the same conditions. The freeze-thaw cycle was repeated two more times. After the third cycle the samples were worked up and analyzed. The concentrations in the frozen and thawed samples were compared with freshly processed QC samples. Concentrations were calculated based on two freshly prepared CALs measured at the beginning and the other at the end of the validation run.

[1] = QCHIGH: 1000 pg/ml, 3 F/T cycles
[2] = ULOQ: 10000 pg/ml, 3 F/T cycles

Compound	Accuracy, Intra-assay Mean (LLOQ: 10 pg/ml, 3 F/T cycles) [%]	Change in concentration [%] (LLOQ: 10 pg/ml)	Accuracy (LLOQ: 10 pg/ml, 3 F/T cycles)	Accuracy, Intra-assay Mean (LLOQ: 10 pg/ml, Baseline) [%]	Accuracy (LLOQ: 10 pg/ml, Baseline)	Accuracy, Intra-assay Mean [1] [%]	Change in concentration [%] (QCHIGH: 1000 pg/ml)	Accuracy [1]	Accuracy, Intra-assay Mean (QCHIGH: 1000 pg/ml, Baseline) [%]	Accuracy (QCHIGH: 1000 pg/ml, Baseline)	Accuracy, Intra-assay Mean (QCLOW: 25 pg/ml, 3 F/T cycles) [%]	Change in concentration [%] (QCLOW: 25 pg/ml)	Accuracy (QCLOW: 25 pg/ml, 3 F/T cycles)	Accuracy, Intra-assay Mean (QCLOW: 25 pg/ml, Baseline) [%]	Accuracy (QCLOW: 25 pg/ml, Baseline)	Accuracy, Intra-assay Mean (QCMID: 100 pg/ml, 3 F/T cycles) [%]	Change in concentration [%] (QCMID: 100 pg/ml)	Accuracy (QCMID: 100 pg/ml, 3 F/T cycles)	Accuracy, Intra-assay Mean (QCMID: 100 pg/ml, Baseline) [%]	Accuracy (QCMID: 100 pg/ml, Baseline)	other results
CCN(CC)C(=O)[C@@H]1C=C2c3cccc4[nH]cc(c34)C[C@H]2N(C)C1 [LSD, Lysergic acid diethylamide]	83.7	−8.83	81.9% and 75.0* % and 81.7% and 84.7% and 79.8* % and 81.8% and 88.5%	91.8	96.6% and 95.7% and 83.2%	96.5	0.647	96.4% and 96.2% (2×) and 96.9% and 96.7% and 94.6% and 98.3%	95.9	96.9% and 96.4% and 94.3%	96.7	4.44	95.2% and 102% and 101% and 91.5% and 98.8% and 93.6% and 94.9%	92.6	94% and 93.4% and 90.5%	98.5	1.03	99.2% and 97.9% and 99.5% and 99.6% and 94.9% and 98% and 100%	97.5	101% and 94.3% and 97.4%	Accuracy, Intra-assay Mean [2]: 95.7%; Change in concentration [%] (ULOQ: 10000 pg/ml): −0.9%; Accuracy [2]: 97.8% and 94.3% and 94% and 96.4% and 99.2% and 93% and 95.2%; Accuracy, Intra-assay Mean (ULOQ: 10000 pg/ml, Baseline): 96.6%; Accuracy (ULOQ: 10000 pg/ml, Baseline): 94.7% and 94.9% and 100%; Change in plasma concentration following three freeze/thaw cycles: ≤ 8.83%
CCN(CC)C(=O)C1C=C2c3cccc4c3C(O)(C[C@H]2N(C)C1)C(=O)N4 (some centres unmarked) [O-H-LSD, 2,3-dihydro-3-hydroxy-2-oxo lysergide]	97	6.46	95.9% and 97.1% and 81.7% and 95.2% and 108% and 104% and 73.9* %	91.1	95% and 88.9% and 89.4%	96.7	0.123	95% and 93.1% and 97.5% and 96.2% and 99.5% and 97.7% and 98.1%	96.6	97.7% and 96.2% and 95.9%	96.9	1.57	109% and 96.6% and 91.4% and 101% and 97.5% and 89.3% and 92.9%	95.3	94.7% and 91.5% and 99.8%	98.7	3.7	95.4% and 102% (2×) and 98.9% and 100% and 94.8% and 97.3%	95.2	95.7% and 98.6% and 91.4%	Found at, Intra-assay Mean (LLOQ: 10 pg/ml, 3 F/T cycles): 9.7 pg/mL; Found at, Intra-assay Mean (LLOQ: 10 pg/ml, Baseline): 9.11 pg/mL; Found at, Intra-assay Mean [1]: 967 pg/mL; Found at, Intra-assay Mean (QCHIGH: 1000 pg/ml, Baseline): 966 pg/mL; Found at, Intra-assay Mean (QCLOW: 25 pg/ml, 3 F/T cycles): 24.2 pg/mL; Found at, Intra-assay Mean (QCLOW: 25 pg/ml, Baseline): 23.8 pg/mL; Found at, Intra-assay Mean (QCMID: 100 pg/ml, 3 F/T cycles): 98.7 pg/mL; Found at, Intra-assay Mean (QCMID: 100 pg/ml, Baseline): 95.2 pg/mL; Accuracy, Intra-assay Mean [2]: 94.9%; Found at, Intra-assay Mean [2]: 9490 pg/mL; Change in concentration [%] (ULOQ: 10000 pg/ml): −0.589%; Accuracy [2]: 92.9% and 92.6% and 96.2% and 96% and 94.8% and 94.4% and 97.2%; Accuracy, Intra-assay Mean (ULOQ: 10000 pg/ml, Baseline): 95.4%; Found at, Intra-assay Mean (ULOQ: 10000 pg/ml, Baseline): 9540 pg/mL; Accuracy (ULOQ: 10000 pg/ml, Baseline): 94.2% and 92.3% and 99.7%; Change in plasma concentration following three freeze/thaw cycles: ≤ 6.46%

Reference: patent publication US11959929B2, “Method of quantifying lysergic acid diethylamide (LSD) and 2,3-dihydro-3-hydroxy-2-oxo lysergide (O-H-LSD) in human plasma” (Universitatsspital Basel, priority 2020, dated 2024)
